Data taken from ChEMBL document CHEMBL1201862, “PubChem BioAssay data set” (2004).
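Protocol summary: plate cells (96-well), add compound at 5 concentrations, incubate 48 h, interpolate endpoints linearly. Abbreviation: GI50, concentration required for 50% inhibition of growth.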 Active and inactive are the calls of the source. Rule as the data show it: active = GI50 up to about 1.1 µM and inactive = higher.

Assays:
Assay in all cases: DTP human tumour cell line panel, 48 h
[1] = test system: SK-MEL-5
[2] = test system: A498
[3] = test system: NCI-H460
[4] = test system: U-251
[5] = test system: DU-145
[6] = test system: SF-295
[7] = test system: OVCAR-8
[8] = test system: 786-0
[9] = test system: IGROV-1
[10] = test system: NCI-H23
[11] = test system: KM12
[12] = test system: Malme-3M
[13] = test system: MDA-MB-435
[14] = test system: HCC 2998
[15] = test system: MCF7
[16] = test system: HT-29
[17] = test system: SK-MEL-2
[18] = test system: HCT-15
[19] = test system: SW-620
[20] = test system: MDA-MB-231

Row | Compound | GI50 [1] | GI50 [2] | GI50 [3] | GI50 [4] | GI50 [5] | GI50 [6] | GI50 [7] | GI50 [8] | GI50 [9] | GI50 [10] | GI50 [11] | GI50 [12] | GI50 [13] | GI50 [14] | GI50 [15] | GI50 [16] | GI50 [17] | GI50 [18] [µM] | GI50 [19] | GI50 [20]
1 | O=C(Nc1cccc2ccccc12)c1ccccc1 | 53.5 µM (inactive) | > 100 µM (inactive) | > 100 µM (inactive) | > 100 µM (inactive) | > 100 µM (inactive) | > 100 µM (inactive) | > 100 µM (inactive) | > 100 µM (inactive) | > 100 µM (inactive) | > 100 µM (inactive) | > 100 µM (inactive) | 88.3 µM (inactive) | 22.6 µM (inactive) | > 100 µM (inactive) | 8.89 µM (inactive) | 47.5 µM (inactive) | 91.2 µM (inactive) | 98.2 | 34.4 µM (inactive) | > 100 µM (inactive)
2 | Cc1cc(O)c(-c2cc(O)c(C)cc2O)cc1O | 14.4 µM (inactive) | 21 µM (inactive) | 18.7 µM (inactive) | 15 µM (inactive) | 14.9 µM (inactive) | 16.7 µM (inactive) | 3.24 µM (inactive) | 2.94 µM (inactive) | 11.5 µM (inactive) | 10.5 µM (inactive) | 12.6 µM (inactive) | 11.1 µM (inactive) | 3.05 µM (inactive) | 14.1 µM (inactive) | 10 µM (inactive) | 17.1 µM (inactive) | 17.2 µM (inactive) | 7.67 | 2.34 µM (inactive) | 14.2 µM (inactive)
3 | Clc1c2nc3ccccc3c-2[nH]c2ccccc12 | 3.95 µM (inactive) | 43 µM (inactive) | 27.2 µM (inactive) | 50.4 µM (inactive) | 22 µM (inactive) | < 0.01 µM (active) | 29 µM (inactive) | 32.5 µM (inactive) | 9.68 µM (inactive) | 11.6 µM (inactive) | 3.94 µM (inactive) | 30.7 µM (inactive) | 5.11 µM (inactive) | 24.5 µM (inactive) | 6.28 µM (inactive) | 4.3 µM (inactive) | > 100 µM (inactive) | 14.4 | 8.83 µM (inactive) | 11.7 µM (inactive)
4 | CCN(CC)CCn1nc(N)c2nc3cc(Cl)ccc3nc21 | 26.1 µM (inactive) | > 100 µM (inactive) | 34.3 µM (inactive) | > 100 µM (inactive) | > 100 µM (inactive) | 54.2 µM (inactive) | 42.4 µM (inactive) | 62.8 µM (inactive) | 16.3 µM (inactive) | 91.6 µM (inactive) | 94.8 µM (inactive) | 61.7 µM (inactive) | 97.9 µM (inactive) | > 100 µM (inactive) | 36.1 µM (inactive) | 35.3 µM (inactive) | 64.3 µM (inactive) | > 100 | 63 µM (inactive) | > 100 µM (inactive)
5 | Cc1ccc(Cc2n[nH]c(=O)n2Nc2ccccc2)cc1 | > 100 µM (inactive) | > 100 µM (inactive) | > 100 µM (inactive) | > 100 µM (inactive) | > 100 µM (inactive) | > 100 µM (inactive) | > 100 µM (inactive) | > 100 µM (inactive) | > 100 µM (inactive) | > 100 µM (inactive) | > 100 µM (inactive) | > 100 µM (inactive) | > 100 µM (inactive) | > 100 µM (inactive) | > 100 µM (inactive) | > 100 µM (inactive) | > 100 µM (inactive) | > 100 | > 100 µM (inactive) | > 100 µM (inactive)
6 | CC(C)(C)c1cc(OCc2nnc3sc(S)nn23)c(Cl)cc1OCc1nnc2sc(S)nn12 | 14.5 µM (inactive) | 39.6 µM (inactive) | 29 µM (inactive) | 29.1 µM (inactive) | 30.3 µM (inactive) | 27.9 µM (inactive) | 37.2 µM (inactive) | 31 µM (inactive) | 23.2 µM (inactive) | 28.7 µM (inactive) | 26.9 µM (inactive) | 16.6 µM (inactive) | 23.6 µM (inactive) | 31.8 µM (inactive) | 15.6 µM (inactive) | 38 µM (inactive) | 27.4 µM (inactive) | 40.6 | 31.9 µM (inactive) | 36.6 µM (inactive)
7 | Cn1nc2ccc3nccc(N4CCN(CCO)CC4)c3c2n1 | > 100 µM (inactive) | > 100 µM (inactive) | > 100 µM (inactive) | > 100 µM (inactive) | > 100 µM (inactive) | > 100 µM (inactive) | > 100 µM (inactive) | > 100 µM (inactive) | > 100 µM (inactive) | > 100 µM (inactive) | > 100 µM (inactive) | > 100 µM (inactive) | > 100 µM (inactive) | > 100 µM (inactive) | > 100 µM (inactive) | > 100 µM (inactive) | > 100 µM (inactive) | 4.02 | 59.4 µM (inactive) | > 100 µM (inactive)
8 | COc1c(-c2ccc(O)c(O)c2)oc2c(O)c(O)cc(O)c2c1=O | 45.4 µM (inactive) | > 100 µM (inactive) | 55.6 µM (inactive) | 34.8 µM (inactive) | > 100 µM (inactive) | 39.1 µM (inactive) | > 100 µM (inactive) | 67.5 µM (inactive) | 24.7 µM (inactive) | 60.3 µM (inactive) | 66.5 µM (inactive) | > 100 µM (inactive) | 31 µM (inactive) | > 100 µM (inactive) | 28.2 µM (inactive) | 20 µM (inactive) | > 100 µM (inactive) | 85.5 | 22.5 µM (inactive) | > 100 µM (inactive)
9 | CC1Cc2cc(O)c(O)cc2-c2cc(O)c(O)cc2CC1C (stereo not given) | 4.81 µM (inactive) | 25 µM (inactive) | 20.4 µM (inactive) | 15.2 µM (inactive) | 36.3 µM (inactive) | 4.41 µM (inactive) | 23.3 µM (inactive) | 14.3 µM (inactive) | 20.4 µM (inactive) | 14.8 µM (inactive) | 4.48 µM (inactive) | 5.62 µM (inactive) | 3.16 µM (inactive) | 17.4 µM (inactive) | 12.1 µM (inactive) | 24 µM (inactive) | 4.32 µM (inactive) | 9.29 | 20.5 µM (inactive) | 6.71 µM (inactive)
10 | NC(=O)c1ncn2c(=O)n(CCl)nnc12 | > 100 µM (inactive) | > 100 µM (inactive) | 51.6 µM (inactive) | > 100 µM (inactive) | > 100 µM (inactive) | > 100 µM (inactive) | 97.1 µM (inactive) | 85.9 µM (inactive) | > 100 µM (inactive) | > 100 µM (inactive) | > 100 µM (inactive) | > 100 µM (inactive) | > 100 µM (inactive) | > 100 µM (inactive) | 49.3 µM (inactive) | 43.2 µM (inactive) | > 100 µM (inactive) | 41.4 | 42 µM (inactive) | > 100 µM (inactive)
11 | C[C@@]12C[C@@H](c3ccccc3O1)N1CCSC1=N2 | > 100 µM (inactive) | > 100 µM (inactive) | > 100 µM (inactive) | > 100 µM (inactive) | > 100 µM (inactive) | > 100 µM (inactive) | > 100 µM (inactive) | > 100 µM (inactive) | > 100 µM (inactive) | > 100 µM (inactive) | > 100 µM (inactive) | > 100 µM (inactive) | > 100 µM (inactive) | > 100 µM (inactive) | > 100 µM (inactive) | > 100 µM (inactive) | > 100 µM (inactive) | > 100 | > 100 µM (inactive) | > 100 µM (inactive)
12 | NC1=NC(=O)[C@H](Cc2c[nH]c3ccccc23)N1C(=O)OCc1ccccc1 | 40.3 µM (inactive) | 61 µM (inactive) | 93.8 µM (inactive) | 69.7 µM (inactive) | 93.8 µM (inactive) | 75.3 µM (inactive) | 46 µM (inactive) | > 100 µM (inactive) | 77.6 µM (inactive) | 38.1 µM (inactive) | > 100 µM (inactive) | 68.7 µM (inactive) | 56.9 µM (inactive) | > 100 µM (inactive) | 81.8 µM (inactive) | > 100 µM (inactive) | > 100 µM (inactive) | > 100 | > 100 µM (inactive) | > 100 µM (inactive)
13 | CC1=C2C(=O)[C@H]3[C@@H](CC=C4C[C@@H](O)CC[C@@]43C)[C@@H]2CC[C@]12O[C@@H]1C[C@H](C)CN[C@H]1[C@H]2C [JERVINE] | > 39.8 µM (inactive) | > 41.2 µM (inactive) | > 44.8 µM (inactive) | > 41.4 µM (inactive) | > 100 µM (inactive) | > 44.1 µM (inactive) | > 47.1 µM (inactive) | > 41.9 µM (inactive) | > 54.7 µM (inactive) | > 42.3 µM (inactive) | > 50.4 µM (inactive) | > 50.4 µM (inactive) | > 100 µM (inactive) | > 54 µM (inactive) | > 100 µM (inactive) | > 55.2 µM (inactive) | > 50.7 µM (inactive) | > 50.8 | > 49.4 µM (inactive) | > 100 µM (inactive)
